From patent publication US5108916A, “Process for stereoselectively hydrolyzing, transesterifying or esterifying with immobilized isozyme of lipase from Candida rugosa” (priority 1989, dated 1992)
Several values for one entry are separate records, joined by “and”; a condition that tells them apart may be missing. Equal values may be shown once. Read-outs that look alike come from different tables or passages of the source.

Key:
[1] = test system: Lipase MY; experiment: Effect of reducing agents on immobilized Lipase MY in the presence of HPPA; assay type: biochemical, Candida rugosa; conditions: for prevention of loss of enzyme activity: repeated batches, Tables 3-5
[2] = test system: Lipase MY; experiment: Product inhibition of Lipase MY; assay type: biochemical, Candida rugosa; conditions: 0.5 equivalents at the start of the reaction
Protocol: Two hydrolysis reactions were run to determine the effect of methanol, produced as a by-product of the hydrolysis of HPPA-Me, on the activity of Lipase MY. (R,S)-HPPA-Me, 1.5 moles, 1 L of 1 M NH4 OAc, pH 6.5, 150 ml toluene, and 2 g Lipase MY were placed in flasks with and without 0.75 moles of methanol. The mixtures were shaken gently and sampled at various times to determine the concentrations of each of the stereoisomers of HPPA which were produced.
To determine the effect of the (R)-HPPA produced during the hydrolysis of (R,S)-HPPA-Me on the activity of Lipase MY, a series of three experiments were performed. Ammonium acetate, 200 ml, 0.04 M, pH 7.0, was combined with 30 ml of toluene, 40 mmoles (R,S)-HPPA-Me, 25 mg Lipase MY, and 0, 30, or 100 mM (R)-HPPA. The reactions were shaken gently for 136 hours and sampled at various times to determine the concentrations of each of the stereoisomers of HPPA which were produced.

[3] = test system: Lipase MY; experiment: Two phase Lipase MY hydrolysis of HPPA-Me in organic solvent/water mixtures; assay type: biochemical, Candida rugosa
Protocol: A. 75% organic solvent/25% aqueous buffer--Fifty milligrams of R,S-HPPA-Me was combined in 10 ml Scintillation vial with 7.5 ml of organic solvent, 2.5 ml of 50 mM phosphate buffer pH 6.0, and 5 mg Lipase MY. The reactions were placed on shaker and shaken for a period of 0-43 hours with samples being taken at various times.
B. 25% organic solvent/75% aqueous buffer--Fifty milligrams of R,S-HPPA-Me was combined, in 10 ml Scintillation vial with 2.5 ml of organic solvent, 7.5 ml 50mM phosphate buffer (pH 6.8), and 5 mg Lipase MY. The reactions were shaken for a period of 0-143 hours with samples being taken at various time points.
The data in Table 2 represents the % conversion and % R-HPPA produced using the indicated organic solvents in a two-phase system wherein 75% […] of the total vehicle (solvent) was water and the balance (25%) was organic solvents.

[4] = test system: CSC-2; experiment: Effect of additives and solvents on hydrolysis of ketoprofen monoglyceride by CSC-2; assay type: biochemical, Candida rugosa; conditions: solvent/buffer 1:1 two phase, 26 hours; for Relative Rate: buffer = 100
Protocol: Hydrolysis of ketoprofen-monoglyceride (50mg) was carried out in various DMF-100mM (NH4)H2 PO4 buffer (pH 5.5) mixtures. In each flask a solution of ketoprofen monoglyceride (50mg) in DMF (200ul) was added. DMF was added followed by 100mM (NH4)H2 PO4 buffer. […] After 22 hours, 2%, 5%, and 10% DMF samples were acidified, extracted with CHCl3 (2×10ml) and analyzed. The other samples were analyzed directly as in Example 18. The acid produced decreases with increasing amount of DMF.
Small amounts of DMF were added to the reaction mixture to increase the solubility of KPG. In all cases 100mM ammonium phosphate buffer (pH 5.5) was used and 2% (v/v) detergents were added and the total volume was 10ml.
The buffer reaction (entry #2 in the table) contained enzyme in buffer (2 ml) and the buffer only (entry #1 in the table) reaction contained no enzyme.
The presence of a surfactant like Tween increases the solubility o lipophilic compounds in water. […] Tween 80 was added to make 1% and 2% solution (v/v). Bovine serum albumin (BSA) (10mg) was added to each of two flasks. A solution of 50mg of ketoprofen monoglyceride in 200ul DMF was added to each. After 20 hours at 250 rpm and 35° C. the reaction mixtures were acidified, extracted and analyzed by the usual HPLC procedure as in Example 18.
Various surfactants were used at 2% of the reaction volume to determine their effect on the enzymatic reaction involving the conversion of ketoprofen monoglyceride (KPG) to ketoprofen (KP). […] Flasks were covered with parafilm and incubated in a 35° C. water bath at 250 rpm, typically overnight. Reactions were stopped by acidification, extracted with CHCl3 (2×10 ml). The %acid and %ee were determined by the method of Example 18. It is to be noted that Hydrophile-Lipophile Balance (HLB) values have no apparent bearing on the ability of the surfactant to enhance the conversion of KPG to KP.
75 mg of KPG (in the absence of DMF) was individually weighed into 50 ml Erlenmeyer flasks. […] 9 ml of 100 mM (NH4)H2 PO4, pH 5.5 buffer was added, and the flasks were placed into a 35° C., 250 rpm water bath incubator for 20 hours. The reactions were acidified, extracted with CHCl3 and examined by HPLC as in Example 18. The %ee was determined as per Example 18.
Various amounts of oleic acid or its esters were added, and the reactions stopped at the times indicated, acidified, extracted with CHCl3 and analyzed as in Example 18.
An experiment was performed as in Example 41, but using 100, 200 and 500 ul of olive oil to determine if it would enhance the rate of conversion of KPG to KP. […] After 20 hours, all reactions were acidified, extracted with CHCl3 and analyzed by HPLC as in Example 18. The results are given below:
50 mg of KPG was weighed into Erlenmeyer flasks. […] Flasks were incubated at 35° C., 250 rpm for 23 hours. The reactions were stopped by acidification, extracted with CHCl3, and analyzed by HPLC as in Example 18. The additive is listed along with its percentage composition of glycerides of oleic acid.
To determine the problems associated with having oleic acid or oleate. esters in the reaction media, the following experiment was performed. […] Flasks were placed in a 35° C. incubator at 250 rpm, and the reactions were sampled by taking 200 ul aliquots at various time points. These aliquots were analyzed by HPLC (ODS-3 RAC column, CH3 OH: 10 mM (NH4)H2 PO4 (60:40) eluant, 4 ml/min, 254 nm detection) to determine the course of reaction. When approximately 40% acid was produced, the reactions were stopped by placing the flasks in the -70° C. freezer. Two extraction procedures were utilized to determine the best method of isolating S-Ketoprofen free of oleic acid. The first (listed as Extraction Procedure I in the following table) involved first making the solution basic (pH 10) with NaOH, then extracting with hexane, then CHCl3.

[5] = Conversion of ketoprofen esters in organic solvent/oleic acid media; assay type: biochemical
Protocol: To optimize the organic solvent used in the presence of oleic acid a variety of organic solvents were used, along with a variety of ketoprofen esters. In this experiment, 50 mg of ketoprofen esters were weighed into flasks, along with 1 ml of oleic acid and 9 ml of an organic solvent. The flasks were capped and incubated at 35° C., 250 rpm, for 10-26 hours before stopping the reaction by first adding 4 ml CHCl3 to solubilize the substrates and products, then filtering through a 0.2 um Gelman Nylaflo filter. Samples were then diluted in methanol and analyzed by HPLC as in Example 18. The experiment was also performed using 200 ul of oleic acid and 10ml buffer, which was acidified, extracted with CHCl3 and analyzed by HPLC as above.
One ml of oleic acid was added, as was 9 ml of buffer (100 mM (NH4)H2 PO4, pH 5.5) or organic solvent. Flasks were placed into a 35° C. incubator and shaken at 250 rpm for 13 hours. Reaction was stopped by adding 5 ml CHCl3 to solubilize the organic material and filtering the solutions using 0.2 um Gelman Nylaflo membranes to remove the enzyme. Samples were analyzed on an ODS-3 RAC column using CH3 OH:10 mM (NH4)H2PO4 (60:40) as eluant, flow rate 4 ml/min, and detection at 254 nm. %ee was determined by the resolution of diastereomeric amides on the above HPLC system, as per Example 18.

[6] = Solubility of HPPA-Me; assay type: physicochemical
[7] = 2 mg/ml in 1M HPPA, 4 days, control enzyme 100%, HPPA treated 70.4%
[8] = KPG 50 mg, 100 mg CSC-2 on silica (279-SD-1), 9 ml solvent (or buffer)/1 ml oleic acid, 13 hours

## N[C@@H](CSSC[C@H](N)C(=O)O)C(=O)O [cystine]
[1]; [7]
  Relative Activity: 83%
[1]; 4 mg/ml
  Relative Activity: 76%
[1]; 8 mg/ml, 5760 min
  Relative Activity: 81%
[1]; 16 mg/ml, 5760 min
  Relative Activity: 83%
[1]; Cystine 2.5 mg, 15 hrs, batch #: 1, 5, 9, 15, 16, 20, 21, 22
  conversion of HPPA-Me (quantity not headed in Table 5): 30 and 19 and 17 and 16 and 20
[1]
  prevention of loss of enzyme activity: Neither sodium sulfite nor cystine was effective

## tetrabutylammonium cyanoborohydride [Bu4 N CNBH3]
[1]; 1m hppa phosphate, pH 6.5, 5760 min, 5760 min
  Relative Activity: 83% and 81% and 88% and 85%

## O=S([O-])[O-].[Na+].[Na+] [Na2 SO3, sodium sulfite]
[1]; [7]
  Relative Activity: 95%
[1]; 4 mg/ml
  Relative Activity: 101%
[1]; 8 mg/ml, 5760 min
  Relative Activity: 110%
[1]; 16 mg/ml, 5760 min
  Relative Activity: 111%
[1]; Na2SO3 10 mg, batches as E44
  Conversion (%) of HPPA-Me to HPPA: 26% and 20% and 16% and 14% and 13% and 15%
[1]
  prevention of loss of enzyme activity: Neither sodium sulfite nor cystine was effective

## O=S([O-])S(=O)[O-].[Na+].[Na+] [Na2 S2 O4, sodium hydrosulfite]
[1]; 8 mg/ml, 5760 min
  Relative Activity: 111%
[1]; 16 mg/ml, 5760 min
  Relative Activity: 112%
[1]; Na2S2O4 25 mg, batches as E39
  Conversion (%) of HPPA-Me to HPPA: 25% and 21% and 34% and 23% and 29% and 18% and 31%
[1]
  prevention of loss of enzyme activity: effective at preventing loss of enzyme activity

## CO [methanol]
[2]
  decrease in activity of the enzyme against HPPA-Me: 39%

## CC(C)c1ccccc1 [cumene]
[3]; solvent 25%, 2.7 hr
  % R: 100%
  Conversion (ester/acid): 35%
[4]
  EE of S-acid: 86%
  Relative Rate: 91

## C1CCCCC1 [cyclohexane]
[3]; solvent 25%, 2.7 hr
  % R: 100%
  Conversion (ester/acid): 35%
[3]; solvent 75%, 2.7 hr
  % R: 83%
  Conversion (ester/acid): 31%
[4]
  EE of S-acid: 95%
  Relative Rate: 185
[5]; KPEG 50 mg, as E212
  % Acid: 29%
[5]; KPEG, as E212
  % ee S-acid: 83%
[5]; [8]
  % Acid: 38%
[5]; KPG, as E212
  % ee S-acid: 98%

## ClC(Cl)=C(Cl)Cl [tetrachloroethylene]
[3]; solvent 25%, 5.3 hr
  % R: 83%
  Conversion (ester/acid): 61%
[3]; solvent 75%, 5.3 hr
  % R: 85%
  Conversion (ester/acid): 58%
[4]
  EE of S-acid: 27%
  Relative Rate: 3
[5]; KPEG 50 mg, as E212
  % Acid: 0%
[5]; KPEG, as E212
  % ee S-acid: 0%
[5]; [8]
  % Acid: 1%
[5]; KPG, as E212
  % ee S-acid: 0%

## ClC(Cl)(Cl)Cl [carbon tetrachloride]
[3]; solvent 25%, 2.7 hr
  % R: 79%
  Conversion (ester/acid): 58%
[3]; solvent 75%, 2.7 hr
  % R: 76%
  Conversion (ester/acid): 61%
[4]
  EE of S-acid: 95%
  Relative Rate: 48

## Cc1ccccc1 [toluene]
[3]; solvent 25%, 2.7 hr
  % R: 100%
[3]; solvent 75%, 2.7 hr
  % R: 90%
  Conversion (ester/acid): 25%
[4]
  EE of S-acid: 58%
  Relative Rate: 15

## COC(=O)C(C)Oc1ccc(O)cc1 (racemic) [HPPA-ME, (R,S)-(+)-methyl-2-(4-hydroxyphenoxy)-propionate]
[6]; aqueous solution, pH 6.5, read-out: solubility
  solubility: < 25 mM
[6]; in trichlorotrifluoroethane
  Solubility (HPPA-ME): insoluble
[6]; organic solvent or mixture, in 1,1,2 trichloroethane, read-out: Solubility (HPPA-ME)
  solubility: 558 mg/mL
[6]; organic solvent or mixture, in 1,2-dibromoethane, read-out: Solubility (HPPA-ME)
  solubility: 566 mg/mL
[6]; organic solvent or mixture, in carbon tetrachloride, read-out: Solubility (HPPA-ME)
  solubility: 33 mg/mL
[6]; organic solvent or mixture, in cumene, read-out: Solubility (HPPA-ME)
  solubility: 20 mg/mL
[6]; organic solvent or mixture, in cyclohexane, read-out: Solubility (HPPA-ME)
  solubility: 66.4 mg/mL
[6]; organic solvent or mixture, in fluorobenzene, read-out: Solubility (HPPA-ME)
  solubility: 156 mg/mL
[6]; organic solvent or mixture, in tetrachloroethylene, read-out: Solubility (HPPA-ME)
  solubility: 1.4 mg/mL
[6]; organic solvent or mixture, in toluene, read-out: Solubility (HPPA-ME)
  solubility: 236 mg/mL
